Test results published in publication PMC10615259, “The Aurora kinase B relocation blocker LXY18 triggers mitotic catastrophe selectively in malignant cells” (PLOS ONE, 2023).

Columns and labels:
Assay in all cases: radiometric kinase assay (Eurofins KinaseProfiler)
Format in all cases: biochemical
Settings in all cases: 2 µM LXY18; Mg/ATP; 120 min; room temperature; no pre-incubation
[1] = target: T1, MKK3 (Homo sapiens, UniProt P46734)
T1 construct: gene MAP2K3; Eurofins KinaseProfiler panel kinase
T1 sequence (P46734 1-347): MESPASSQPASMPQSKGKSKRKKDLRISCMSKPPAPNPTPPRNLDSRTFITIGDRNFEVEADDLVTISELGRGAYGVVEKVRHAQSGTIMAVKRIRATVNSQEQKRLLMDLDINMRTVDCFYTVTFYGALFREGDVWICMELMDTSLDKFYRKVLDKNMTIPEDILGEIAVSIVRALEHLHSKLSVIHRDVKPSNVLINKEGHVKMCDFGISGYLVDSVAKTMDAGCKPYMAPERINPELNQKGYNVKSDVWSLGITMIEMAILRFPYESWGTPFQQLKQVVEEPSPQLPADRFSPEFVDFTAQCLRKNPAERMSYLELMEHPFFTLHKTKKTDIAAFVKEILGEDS

[2] = target: T2, ABL (Homo sapiens, UniProt P00519)
T2 construct: gene ABL1; Eurofins KinaseProfiler panel kinase

[3] = target: T3, ABL (Homo sapiens, UniProt P00519, H396P)
T3 construct: gene ABL1; Eurofins KinaseProfiler panel kinase

COc1cc(NC(C)=O)cc(Oc2ccnc3ccc(Br)cc23)c1 [LXY18, N-(3-((6-bromoquinolin-4-yl)oxy)-5-methoxyphenyl)acetamide]
% inhibition at 2 μM [1]: The only positive hits in the kinome assay were MKK3, ABL, and an activating mutant
% inhibition at 2 μM [2]: The only positive hits in the kinome assay were MKK3, ABL, and an activating mutant
% inhibition at 2 μM [3]: MKK3, ABL, and an activating mutant ABL (H396P)
